# In patent US6620796B1, “Combinatorial library synthesis and pharmaceutically active compounds produced thereby” (Micrologix Biotech Inc., priority 1999, dated 2003):
# Read-outs that look alike come from different tables or passages of the source.
# Columns and labels:
# Assay type in all cases: cell-based
# hepatits B virus (HBV) = test: Inhibition of HBV: extracellular virion HBV DNA in 2.2.15 cell cultures; details: for HBV Virion DNA Levels at indicated Drug Concentration: untreated control 114±16 pg/ml
# Protocol: Briefly, confluent 2.2.15 cell cultures infected with an HBV strain were treated with 9 consecutive daily doses of four concentrations of test compound. Extracellular virion HBV DNA levels were followed 24 hours after the last treatment. The level of HBV virion DNA in the 24 control (untreated) cultures in these experiments was 114±16 pg/ml culture medium.
# [1] = Toxicity analysis by neutral red dye uptake in 2.2.15 cells; details: human, neutral red dye uptake
# Protocol: (§1) Cells for toxicity analyses were cultured and treated with four concentrations of the test compound. Uptake of neutral red dye was used to determine the relative level of toxicity 24 hours following the last treatment. The absorbance of internalized dye at 510 nm (A510 ) was used for the quantitative analysis. The percentage of dye uptake in the control (untreated) cell cultures was 100±3.
# 2.2.15 cells = test: as above
# Protocol: as §1
# [2] = HBV replication, 2.2.15 cells, 9 consecutive daily doses, virion DNA 24 hours after last treatment, read-out: EC50
# [3] = HBV replication, 2.2.15 cells, 9 consecutive daily doses, virion DNA 24 hours after last treatment, read-out: EC90
Compound,"HBV Virion DNA Levels at indicated Drug Concentration (hepatits B virus (HBV); 0.01 μM, 2.2.15 cells) [pg/ml culture]","HBV Virion DNA Levels at indicated Drug Concentration (hepatits B virus (HBV); 0.1 μM, 2.2.15 cells) [pg/ml culture]","HBV Virion DNA Levels at indicated Drug Concentration (hepatits B virus (HBV); 1.0 μM, 2.2.15 cells) [pg/ml culture]","HBV Virion DNA Levels at indicated Drug Concentration (hepatits B virus (HBV); 10 μM, 2.2.15 cells) [pg/ml culture]",EC50 (hepatits B virus (HBV); 24 h) [µM],EC90 (hepatits B virus (HBV); 24 h) [µM],"Selectivity Index (CC50/EC90) (hepatits B virus (HBV); HBV replication, 2.2.15 cells)",CC50 [1] [µM],Neutral Red Dye Uptake at Indicated Drug Concentration (2.2.15 cells; 10 μM),Neutral Red Dye Uptake at Indicated Drug Concentration (2.2.15 cells; 30 μM),Neutral Red Dye Uptake at Indicated Drug Concentration (2.2.15 cells; 100 μM),Neutral Red Dye Uptake at Indicated Drug Concentration (2.2.15 cells; 300 μM),EC50 (hepatits B virus (HBV); [2]) [µM],EC90 (hepatits B virus (HBV); [3]) [µM]
C=C(C)CC/C=C/COP(=O)(S)OC[C@H]1O[C@@H](n2cnc3c(N)ncnc32)C[C@@H]1O (stereo partly drawn) [Nucleoside W198-10],127 ± 10,121 ± 10,139 ± 10,46 ± 2,7.7 ± 0.9,24 ± 0.8,>13,> 300,100 ± 1 % of control,102 ± 2 % of control,99 ± 1 % of control,98 ± 1 % of control,,
C/C=C(/COP(=O)(S)OC[C@H]1O[C@@H](n2cnc3c(N)ncnc32)C[C@@H]1O)c1ccccc1 (stereo partly drawn) [Nucleoside W198-21],137 ± 14,121 ± 13,117 ± 12,35 ± 4,,,>16,> 300,99 ± 3 % of control,99 ± 1 % of control,100 ± 1 % of control,100 ± 2 % of control,5.3 ± 0.6,19 ± 2.1
Nc1ncnc2c1ncn2[C@H]1C[C@H](O)[C@@H](COP(=O)(S)OCc2ccc3ccccc3c2)O1 (stereo partly drawn) [Nucleoside W198-22],129 ± 13,122 ± 13,152 ± 11,59 ± 2,,,>9.4,> 300,99 ± 2 % of control,101 ± 3 % of control,102 ± 2 % of control,103 ± 2 % of control,10 ± 1.1,32 ± 3.2
C=C(C)[C@@H]1CC=C(COP(=O)(S)OC[C@H]2O[C@@H](n3cnc4c(N)ncnc43)C[C@@H]2O)CC1 (stereo partly drawn) [Nucleoside W198-24],140 ± 15,133 ± 12,149 ± 25,62 ± 3,,,>7.7,> 300,100 ± 1 % of control,102 ± 2 % of control,103 ± 1 % of control,102 ± 1 % of control,12 ± 1.2,39 ± 4.1
